What all share (type): cell-based
For test [1], the system named is MOLT-4 cells. The test can be described thus: CTG (CellTiter-Glo) cell viability assay, MOLT-4. The conditions noted are these: Homo sapiens, MOLT-4, 72 h, MOLT-4, 3 day; read-out: CTG Cell Viability Assay - MOLT-4 3 day: Average external-IC50. A digest of the protocol: (§1)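 Cells seeded at 10,000 per well, then exposed to a 9-point 1:3 dilution series from 10 µM top concentration (0.2% DMSO) for 3 days at 37 °C, 5% CO2. Viability measured by CellTiter-Glo luminescence; IC50 from a three-parameter logistic fit.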
Background: In ATP-based viability assays light output follows the ATP content of the culture.

Test [2] relates to Caki-2 cells. Briefly: CTG (CellTiter-Glo) cell viability assay, Caki-2. The conditions noted are these: Homo sapiens, CAKI-2, 72 h, Caki-2, 3-day; read-out: CTG Chempartner/PHA- Caki-2 3-day: Average external-IC50. The method, boiled down: as §1
Test [3] has as its target T1, BCL-XL (Homo sapiens, UniProt Q07817).
T1 construct: BCL-XL degradation results in MOLT-4 cells for compounds of the invention; endogenous in cells; host or cells: MOLT-4
The test can be described thus: BCL-XL degradation assay in MOLT-4 cells (ELISA, 6 h). The conditions noted are these: for DC50: read-out: Bcl-xL ELISA in MOLT-4 degradation 6 h: External Abs-DC50. In general terms: ELISA stands for enzyme-linked immunosorbent assay.

T1 sequence (Q07817 whole entry): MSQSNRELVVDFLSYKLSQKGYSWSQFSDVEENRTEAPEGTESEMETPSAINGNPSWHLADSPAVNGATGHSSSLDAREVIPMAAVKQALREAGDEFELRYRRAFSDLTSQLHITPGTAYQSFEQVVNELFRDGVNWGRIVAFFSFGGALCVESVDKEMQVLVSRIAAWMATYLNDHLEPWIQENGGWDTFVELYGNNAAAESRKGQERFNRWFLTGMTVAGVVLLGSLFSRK

As usually defined, the Dmax is the greatest extent of degradation seen. Higher therefore signals a fuller loss of target. Broadly, the DC50 is the concentration giving 50% degradation. In the case of `Cc1ncsc1-c1ccc([C@H](C)NC(=O)[C@@H]2C[C@@H](O)CN2C(=O)[C@@H](NC(=O)CCCCCC(=O)N2CCN(CCCNc3ccc(S(=O)(=O)NC(=O)c4ccc(N5CCN(Cc6ccccc6-c6ccc(Cl)cc6)CC5)cc4Oc4cnc5[nH]ccc5c4)cc3S(=O)(=O)C(F)(F)F)CC2)C(C)(C)C)cc1` [I-51], the IC50 in test [1] is 1000 to 3000 nM. In addition, in test [2], the IC50 is greater than 30000 nM. Besides, in test [3], the greatest degradation seen (Dmax) fell in the range of 50 to 75% and the DC50 was 100 to 500 nM.
For `Cc1ncsc1-c1ccc([C@H](C)NC(=O)[C@@H]2C[C@@H](O)CN2C(=O)[C@@H](NC(=O)CCCCCC(=O)N2CCN(CCCNc3ccc(S(=O)(=O)NC(=O)c4ccc(N5CCN(CC6=C(c7ccc(Cl)cc7)CCC(C)(C)C6)CC5)cc4Oc4cnc5[nH]ccc5c4)cc3S(=O)(=O)C(F)(F)F)CC2)C(C)(C)C)cc1` [I-52] the same measures were 100 to 1000 nM, greater than 30000 nM, 50 to 75% and 100 to 500 nM.
For `Cc1ncsc1-c1ccc([C@H](C)NC(=O)[C@@H]2C[C@@H](O)CN2C(=O)[C@@H](NC(=O)CCCCC(=O)N2CCN(CCCNc3ccc(S(=O)(=O)NC(=O)c4ccc(N5CCN(CC6=C(c7ccc(Cl)cc7)CC(C)(C)CC6)CC5)cc4Oc4cnc5[nH]ccc5c4)cc3S(=O)(=O)C(F)(F)F)CC2)C(C)(C)C)cc1` [I-63] the same measures were 1000 to 3000 nM, greater than 30000 nM, 50 to 75% and 100 to 500 nM.
In the same order, the values of `Cc1ncsc1-c1ccc([C@H](C)NC(=O)[C@@H]2C[C@@H](O)CN2C(=O)[C@@H](NC(=O)CCCCCCC(=O)N2CCN(C[C@]3(C)CCC(c4ccc(Cl)cc4)=C(CN4CCN(c5ccc(C(=O)NS(=O)(=O)c6ccc(NCCCN7CCOCC7)c(S(=O)(=O)C(F)(F)F)c6)c(Oc6cnc7[nH]ccc7c6)c5)CC4)C3)CC2)C(C)(C)C)cc1` [I-65] are less than 100 nM, 10000 to 30000 nM, 50 to 75% and 10 to 100 nM.
Take `Cc1ncsc1-c1ccc([C@H](C)NC(=O)[C@@H]2C[C@@H](O)CN2C(=O)[C@@H](NC(=O)CCCCCN(C)CCCNc2ccc(S(=O)(=O)NC(=O)c3ccc(N4CCC([C@H](O)c5ccccc5-c5ccc(Cl)cc5)CC4)cc3Oc3cnc4[nH]ccc4c3)cc2S(=O)(=O)C(F)(F)F)C(C)(C)C)cc1` [I-67]: the IC50 in test [1] is greater than 3000 nM. The IC50 in test [2] was greater than 30000 nM. Moreover, in test [3], the Dmax was 50 to 75% and the DC50 was 500 to 1000 nM.
For `Cc1ncsc1-c1ccc([C@H](C)NC(=O)[C@@H]2C[C@@H](O)CN2C(=O)[C@@H](NC(=O)CCCCCN(C)CCCNc2ccc(S(=O)(=O)NC(=O)c3ccc(N4CCN(CC5=C(c6ccc(Cl)cc6)CC(C)(C)CC5)CC4)cc3Oc3cnc4[nH]ccc4c3)cc2S(=O)(=O)C(F)(F)F)C(C)(C)C)cc1` [I-69] the same measures were greater than 3000 nM, greater than 30000 nM, less than 50% and 500 to 1000 nM.
As for `Cc1ncsc1-c1ccc([C@H](C)NC(=O)[C@@H]2C[C@@H](O)CN2C(=O)[C@@H](NC(=O)CCCCCN2CCN(CCCNc3ccc(S(=O)(=O)NC(=O)c4ccc(N5CCN(CC6=C(c7ccc(Cl)cc7)CC(C)(C)CC6)CC5)cc4Oc4cnc5[nH]ccc5c4)cc3S(=O)(=O)C(F)(F)F)CC2)C(C)(C)C)cc1` [I-74], in test [1], the IC50 fell in the range of 100 to 1000 nM. The IC50 in test [2] is greater than 30000 nM. For the same compound, in test [3], the Dmax was less than 50% and the DC50 fell in the range of 500 to 1000 nM.
For `Cc1ncsc1-c1ccc([C@H](C)NC(=O)[C@@H]2C[C@@H](O)CN2C(=O)[C@@H](NC(=O)CCCCCCC(=O)N2CCN(CCCNc3ccc(S(=O)(=O)NC(=O)c4ccc(N5CCN(CC6=C(c7ccc(Cl)cc7)CC(C)(C)CC6)CC5)cc4Oc4cnc5[nH]ccc5c4)cc3S(=O)(=O)C(F)(F)F)CC2)C(C)(C)C)cc1` [I-81] the same measures were less than 100 nM, greater than 30000 nM, greater than 75% and 10 to 100 nM.
In the same order, the values of `C#Cc1ccc([C@H](C)NC(=O)[C@@H]2C[C@@H](O)CN2C(=O)[C@@H](NC(=O)CCCCCC(=O)N2CCN(CCCNc3ccc(S(=O)(=O)NC(=O)c4ccc(N5CCN(CC6=C(c7ccc(Cl)cc7)CC(C)(C)CC6)CC5)cc4Oc4cnc5[nH]ccc5c4)cc3S(=O)(=O)C(F)(F)F)CC2)C(C)(C)C)cc1` [I-85] are 100 to 1000 nM, greater than 30000 nM, less than 50% and 500 to 1000 nM.
With `Cc1ncsc1-c1ccc([C@H](C)NC(=O)[C@@H]2C[C@@H](O)CN2C(=O)[C@@H](NC(=O)CCCCCCCC(=O)N2CCN(CCCNc3ccc(S(=O)(=O)NC(=O)c4ccc(N5CCN(CC6=C(c7ccc(Cl)cc7)CC(C)(C)CC6)CC5)cc4Oc4cnc5[nH]ccc5c4)cc3S(=O)(=O)C(F)(F)F)CC2)C(C)(C)C)cc1` [I-86], in test [1], the IC50 was in the range of 100 to 1000 nM. For the same compound, the IC50 in test [2] was greater than 30000 nM. For the same compound, in test [3], the Dmax was 50 to 75% and the 50% degradation concentration (DC50) is 10 to 100 nM.
In the same order, the values of `C#Cc1ccc([C@H](CO)NC(=O)[C@@H]2C[C@@H](O)CN2C(=O)[C@@H](NC(=O)CCCCCC(=O)N2CCN(CCCNc3ccc(S(=O)(=O)NC(=O)c4ccc(N5CCN(CC6=C(c7ccc(Cl)cc7)CC(C)(C)CC6)CC5)cc4Oc4cnc5[nH]ccc5c4)cc3S(=O)(=O)C(F)(F)F)CC2)C(C)(C)C)cc1` [I-102] are less than 100 nM, greater than 30000 nM, greater than 75% and less than 10 nM.
Regarding `C#Cc1ccc([C@H](C)NC(=O)[C@@H]2C[C@@H](O)CN2C(=O)[C@@H](NC(=O)CCCCCC(=O)N2CCN(CCCNc3ccc(S(=O)(=O)NC(=O)c4ccc(N5CCN(CC6=C(c7ccc(Cl)cc7)CC(C)(C)CC6)CC5)cc4Oc4cnc5[nH]ccc5c4)cc3S(=O)(=O)C(F)(F)F)CC2)C(C)(C)C)cc1F` [I-105], the IC50 in test [1] was 100 to 1000 nM. Besides, the IC50 in test [2] was greater than 30000 nM. For the same compound, in test [3], the Dmax was in the range of 50 to 75% and the DC50 is 100 to 500 nM.
In the case of `Cc1ncsc1-c1ccc([C@H](C)NC(=O)[C@@H]2C[C@@H](O)CN2C(=O)[C@@H](NC(=O)CCCCCC(=O)N2CCCN(CCCNc3ccc(S(=O)(=O)NC(=O)c4ccc(N5CCN(CC6=C(c7ccc(Cl)cc7)CC(C)(C)CC6)CC5)cc4Oc4cnc5[nH]ccc5c4)cc3S(=O)(=O)C(F)(F)F)CC2)C(C)(C)C)cc1` [I-106], the IC50 in test [1] is less than 100 nM. Besides, the IC50 in test [2] is greater than 30000 nM. Moreover, in test [3], the Dmax was 50 to 75% and the DC50 was in the range of 10 to 100 nM.
As for `Cc1ncsc1-c1ccc([C@H](C)NC(=O)[C@@H]2C[C@@H](O)CN2C(=O)[C@@H](NC(=O)CCCCCCN(C)CC[C@H](CSc2ccccc2)Nc2ccc(S(=O)(=O)NC(=O)c3ccc(N4CCC([C@@H](O)c5ccccc5-c5ccc(Cl)cc5)CC4)cc3)cc2S(=O)(=O)C(F)(F)F)C(C)(C)C)cc1` [I-108], the IC50 in test [1] is less than 100 nM. Further, the IC50 in test [2] is greater than 30000 nM. In test [3], the Dmax lay in the range of 50 to 75% and the DC50 lay within 10 to 100 nM.
For the compound `Cc1ncsc1-c1ccc([C@H](C)NC(=O)[C@@H]2C[C@@H](O)CN2C(=O)[C@@H](NC(=O)CCCCC(=O)N2CCN(CC[C@H](CSc3ccccc3)Nc3ccc(S(=O)(=O)NC(=O)c4ccc(N5CCC([C@@H](O)c6ccccc6-c6ccc(Cl)cc6)CC5)cc4)cc3S(=O)(=O)C(F)(F)F)CC2)C(C)(C)C)cc1` [I-109], the IC50 in test [1] lay within 100 to 1000 nM. In test [2], the IC50 is greater than 30000 nM. In addition, in test [3], the maximal degradation (Dmax) was greater than 75% and the DC50 was 10 to 100 nM.
For `Cc1ncsc1-c1ccc([C@H](C)NC(=O)[C@@H]2C[C@@H](O)CN2C(=O)[C@@H](NC(=O)CCCCCCN2CCN(CC[C@H](CSc3ccccc3)Nc3ccc(S(=O)(=O)NC(=O)c4ccc(N5CCC([C@@H](O)c6ccccc6-c6ccc(Cl)cc6)CC5)cc4)cc3S(=O)(=O)C(F)(F)F)CC2)C(C)(C)C)cc1` [I-118] the same measures were 100 to 1000 nM, greater than 30000 nM, greater than 75% and 10 to 100 nM.
Take `Cc1ncsc1-c1ccc([C@H](C)NC(=O)[C@@H]2C[C@@H](O)CN2C(=O)[C@@H](NC(=O)CCCCCCC(=O)N2CCN(CC[C@H](CSc3ccccc3)Nc3ccc(S(=O)(=O)NC(=O)c4ccc(N5CCC([C@@H](O)c6ccccc6-c6ccc(Cl)cc6)CC5)cc4)cc3S(=O)(=O)C(F)(F)F)CC2)C(C)(C)C)cc1` [I-120]: the IC50 in test [1] was less than 100 nM; in test [2], 10000 to 30000 nM. Moreover, the Dmax in test [3] was in the range of 50 to 75%. In addition, the DC50 in test [3] was in the range of 10 to 100 nM.
For `Cc1ncsc1-c1ccc([C@H](C)NC(=O)[C@@H]2C[C@@H](O)CN2C(=O)[C@@H](NC(=O)CCCCCC(=O)N2CCN(CC[C@H](CSc3ccccc3)Nc3ccc(S(=O)(=O)NC(=O)c4ccc(N5CCN([C@@H](O)c6ccccc6-c6ccc(Cl)cc6)CC5)cc4)cc3S(=O)(=O)C(F)(F)F)CC2)C(C)(C)C)cc1` [I-121] the same measures were less than 100 nM, 10000 to 30000 nM, greater than 75% and less than 10 nM.
Turning to `Cc1ncsc1-c1ccc([C@H](C)NC(=O)[C@@H]2C[C@@H](O)CN2C(=O)[C@@H](NC(=O)CCCCCC(=O)N2CCCN(CC[C@H](CSc3ccccc3)Nc3ccc(S(=O)(=O)NC(=O)c4ccc(N5CCN([C@@H](O)c6ccccc6-c6ccc(Cl)cc6)CC5)cc4)cc3S(=O)(=O)C(F)(F)F)CC2)C(C)(C)C)cc1` [I-124], in test [1], the IC50 is less than 100 nM. Also, the IC50 in test [2] lay in the range of 10000 to 30000 nM. In test [3], the Dmax fell in the range of 50 to 75% and the DC50 was less than 10 nM.
For `Cc1ncsc1-c1ccc(CNC(=O)[C@@H]2C[C@@H](O)CN2C(=O)[C@@H](NC(=O)CCCCCC(=O)N2CC3(CN(CC[C@H](CSc4ccccc4)Nc4ccc(S(=O)(=O)NC(=O)c5ccc(N6CCN([C@@H](O)c7ccccc7-c7ccc(Cl)cc7)CC6)cc5)cc4S(=O)(=O)C(F)(F)F)C3)C2)C(C)(C)C)cc1` [I-125] the same measures were 100 to 1000 nM, greater than 30000 nM, 50 to 75% and 10 to 100 nM.

Values taken from US20260092057A1, “BCL-XL/BCL-2 DEGRADERS AND USES THEREOF” (Kymera Therapeutics, Inc., priority 2022, published 2026).
